Assay results reported in the NIST ThermoML archive (doi:10.1016/j.jct.2014.07.001).
Numbers after ± are expanded uncertainties.

Conditions: Drop volume

| SMILES | surface tension liquid-gas (293.15 K) [mN/m] | surface tension liquid-gas (303.15 K) [mN/m] | surface tension liquid-gas (313.15 K) [mN/m] | surface tension liquid-gas (323.15 K) [mN/m] |
| --- | --- | --- | --- | --- |
| CCCC[n+]1ccccc1.F[B-](F)(F)F [1-butylpyridinium tetrafluoroborate] | 46.9 ± 0.56 | 46.3 ± 0.55 | 45.69 ± 0.54 | 45.11 ± 0.54 |
| CCCC[n+]1ccc(C)cc1.F[B-](F)(F)F [1-butyl-4-methylpyridinium tetrafluoroborate] | 45.82 ± 0.54 | 45.09 ± 0.54 | 44.41 ± 0.53 | 43.71 ± 0.52 |
| CCCC[n+]1cccc(C)c1.F[B-](F)(F)F [1-butyl-3-methylpyridinium tetrafluoroborate] | 45.21 ± 0.54 | 44.48 ± 0.53 | 43.8 ± 0.52 | 43.24 ± 0.52 |
| CO [methanol] | 22.6 ± 0.26 | 21.81 ± 0.25 | 20.93 ± 0.24 | 20.05 ± 0.23 |
| CCC[n+]1ccccc1.F[B-](F)(F)F [1-propylpyridinium tetrafluoroborate] | 51.29 ± 0.61 | 50.51 ± 0.6 | 49.79 ± 0.59 | 49.03 ± 0.58 |
| CCO [ethanol] | 22.28 ± 0.26 | 21.49 ± 0.25 | 20.66 ± 0.24 | 19.84 ± 0.23 |
